# Measured values published in ChEMBL document CHEMBL5352428, “Covalent inhibitors of bacterial peptidoglycan biosynthesis enzyme MurA with chloroacetamide warhead” (Eur J Med Chem, 2022).
# Calls of active or inactive are those of the source. The calls are words filed in the database; no cut-off is given here.
# Experiments:
# Staphylococcus aureus [1] = test: Antibacterial activity against Staphylococcus aureus ATCC 29213 assessed as bacterial growth inhibition incubated for 24 hrs by broth dilution method; type: functional
# [2] = biological target: UDP-N-acetylglucosamine 1-carboxyvinyltransferase (Escherichia coli K-12) (UniProt P0A749); test: (§1) Inhibition of recombinant Escherichia coli MurA expressed in Escherichia coli NiCo21 assessed as residual activity using UNAG and PEP as substrate at 500 uM preincubated for 30 mins in presence of UNAG followed by PEP substrate addition and measured after 15 mins by malachite green based colorimetric assay; settings: time 45.0 min
# [3] = Thiol reactivity of compound at pH 7.4 buffer assessed as fold decrease by measuring second order rate constant at 100 uM and measured for 4 hrs every 5 mins in presence of DTNB and TCEP by microplate reader analysis relative to Iodoacetamide; type: physicochemical; settings: pH 7.4, 4 h
# Escherichia coli [4] = test: Antibacterial activity against Escherichia coli ATCC 25922 assessed as bacterial growth inhibition incubated for 24 hrs by broth dilution method; type: functional
# [5] = Thiol reactivity of compound at pH 7.4 buffer at 100 uM and measured for 4 hrs every 5 mins in presence of DTNB and TCEP by microplate reader analysis; type: physicochemical; settings: pH 7.4, 4 h
# [6] = biological target: UDP-N-acetylglucosamine 1-carboxyvinyltransferase (Escherichia coli K-12) (UniProt P0A749); test: as §1, with “Irreversible inhibition” for “Inhibition”, “400” for “500”; settings: time 45.0 min
# [7] = biological target: UDP-N-acetylglucosamine 1-carboxyvinyltransferase (Escherichia coli K-12) (UniProt P0A749); test: Binding affinity to UNAG activated recombinant Escherichia coli MurA Cys115 residue at 5 mM incubated for 30 mins in presence of UNAG by LC-MS/MS analysis
# [8] = biological target: T1, UDP-N-acetylglucosamine 1-carboxyvinyltransferase (Escherichia coli K-12, UniProt P0A749); test: Inhibition of recombinant Escherichia coli MurA expressed in Escherichia coli NiCo21 using UNAG and PEP as substrate preincubated for 30 mins in presence of UNAG followed by PEP substrate addition and measured after 15 mins by malachite green based colorimetric assay
# [9] = biological target: UDP-N-acetylglucosamine 1-carboxyvinyltransferase (Escherichia coli K-12) (UniProt P0A749); test: Inhibition of recombinant Escherichia coli MurA expressed in Escherichia coli NiCo21 using UNAG and PEP as substrate and measured for 15 mins by malachite green based colorimetric assay
# [10] = biological target: T1, UDP-N-acetylglucosamine 1-carboxyvinyltransferase; test: Inhibition of recombinant Escherichia coli MurA expressed in Escherichia coli NiCo21 using UNAG and PEP as substrate preincubated for 15 mins in presence of UNAG followed by PEP substrate addition and measured after 15 mins by malachite green based colorimetric assay
# Staphylococcus aureus [11] = test: Antibacterial activity against Staphylococcus aureus ATCC 29213 assessed as bacterial growth inhibition at <= 128 ug/ml incubated for 24 hrs by broth dilution method; type: functional, organism-based; settings: dose <= 128.0 µg/ml
# [12] = biological target: UDP-N-acetylglucosamine 1-carboxyvinyltransferase (Escherichia coli K-12) (UniProt P0A749); test: (§2) Irreversible inhibition of recombinant Escherichia coli MurA expressed in Escherichia coli NiCo21 assessed as residual activity using UNAG and PEP as substrate at 400 uM preincubated for 30 mins in presence of UNAG followed by 100 fold dilution and PEP substrate addition and measured after 15 mins by malachite green based colorimetric assay; settings: time 45.0 min
# Escherichia coli [13] = test: Antibacterial activity against Escherichia coli ATCC 25922 assessed as bacterial growth inhibition at <=128 ug/ml incubated for 24 hrs by broth dilution method; type: functional, organism-based; settings: dose <= 128.0 µg/ml
# [14] = biological target: UDP-N-acetylglucosamine 1-carboxyvinyltransferase (Escherichia coli K-12) (UniProt P0A749); test: as §2, with “NiCo21” for “NiCo21 assessed as residual activity”, “assessed as second-order rate constant for enzyme inactivation, ratio of Kinact/Ki” for “at 400 uM”; settings: time 45.0 min
# Chain of UDP-N-acetylglucosamine 1-carboxyvinyltransferase (Escherichia coli K-12) (P0A749 whole entry): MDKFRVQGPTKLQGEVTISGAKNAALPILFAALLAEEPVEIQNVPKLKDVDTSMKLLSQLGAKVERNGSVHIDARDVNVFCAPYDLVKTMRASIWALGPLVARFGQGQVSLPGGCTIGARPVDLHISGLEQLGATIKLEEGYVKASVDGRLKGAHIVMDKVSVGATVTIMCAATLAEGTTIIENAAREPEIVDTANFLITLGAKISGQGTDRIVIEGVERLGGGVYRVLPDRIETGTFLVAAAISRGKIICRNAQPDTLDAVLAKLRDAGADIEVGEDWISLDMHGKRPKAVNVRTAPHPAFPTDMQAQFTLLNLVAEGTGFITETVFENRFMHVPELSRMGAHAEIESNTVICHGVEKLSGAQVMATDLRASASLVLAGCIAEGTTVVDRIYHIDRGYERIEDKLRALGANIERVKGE
# T1 sequence (P0A749 whole entry): as above
MIC (Staphylococcus aureus [1]) [µg/mL],Activity [2] [%],fold change (FC) [3],MIC (Escherichia coli [4]) [µg/mL],Drug metabolism [5],Activity [6] [%],Activity [7],IC50 [8] [µM],inhibition [9],IC50 [10] [µM],Activity [12],Ratio [14],SMILES,Activity (Staphylococcus aureus [11]),Activity (Escherichia coli [13])
4,81,3,16,Metabolite_Detected,,,,,,,,O=C(CCl)N1CCN(CCC2CCCCC2)CC1,,
,,33,,Metabolite_Notdetected,1.6,Active,39,inactive,400,inactive,4.78 10^-3/µM/min,O=C(CCl)NC1CCCC2CCCCC21 (stereo unspecified),inactive,inactive
